Reference: US8008487B2, “Substituted thieno[2,3-D]pyrimidines as fungicides” (priority 2004, dated 2011)

Legend:
Assay type in all cases: in vivo
Cochliobolus sativus = assay: Spot Blotch of Wheat (COCHSA), whole-plant fungicide test; conditions: Bipolaris sorokiniana, foliar, 24 h, 200 ppm on foliage, one-day protectant test, read-out: COCHSA percent control of disease
Method: The activity of the compounds as effective fungicides was determined by applying the compounds to plants and observing control of fungal disease. The compounds were formulated at 200 ppm in 10 vol. percent acetone plus 90 vol. percent Triton X water (deionized water 99.99 wt. percent+0.01 wt. percent Triton X100), giving a “formulated test compound.” In a few cases, compounds were formulated at 100, 75 or 8.3 ppm rather than 200 ppm in 10 vol. percent acetone plus 90 vol. percent Triton X water (deionized water 99.99 wt. percent+0.01 wt. percent Triton X100), giving a ‘formulated test compound’. The compounds were tested for ability to control plant diseases in a 1-day protectant test (1DP) or a 2-day curative test (2DC). Formulated test compounds were applied to plants using a turn table sprayer fitted with two opposing air atomization nozzles which delivered approximately 1500 L/ha of spray volume. Plants were inoculated with spores of the fungus the next day (1DP), then incubated in an environment conducive to disease development. In a few cases, the compounds were tested for ability to control plant disease in a two-day curative test. Plants were inoculated with spores of the fungus two days prior to compound application, and incubated in an environment conducive to disease development both before and after compound application (2DC). For all types of tests, disease severity was evaluated 4 to 28 days later, depending on the speed of disease development.
Each pot contained 3-8 seedlings. These plants were sprayed until wet with the formulated test compound. On the following day, the leaves were inoculated with an aqueous spore suspension of Cochliobolus sativus and the plants were kept in high humidity for one to two days to permit spores to germinate and infect the leaf. The plants were then transferred to a greenhouse until disease developed on untreated control plants.
The following table presents the activity of typical compounds of the present invention when evaluated in these experiments. The effectiveness of the test compounds in controlling disease was determined by assessing the severity of disease on treated plants, then converting the severity to percent control based on the level of disease on untreated, inoculated plants.
TABLE 4: Activity of compounds as fungicides. Data are the level at which the given disease was controlled when the given compound was applied to the foliage of the plant at 200 ppm. In a few cases (noted in the table) the compound was applied to the plant at 100, 75 or 8.3 ppm. The plant was inoculated with the fungus one day after treatment. In a few cases (noted in the table) the plant was inoculated with the fungus two days before treatment.

Colletotricum lagenarium = assay: Cucumber Anthracnose (COLLLA), whole-plant fungicide test; conditions: Cucumis sativus, foliar, 24 h, 200 ppm on foliage, one-day protectant test, read-out: COLLLA percent control of disease
Erysiphe cichoracaerum = assay: Cucumber Powdery Mildew (ERYSCI), whole-plant fungicide test; conditions: Erysiphe, foliar, 24 h, 200 ppm on foliage, one-day protectant test, read-out: ERYSCI percent control of disease
[1] = test system: Erysiphe graminis f. sp. tritici; assay: Powdery Mildew of Wheat (ERYSGT), whole-plant fungicide test; conditions: Blumeria graminis, foliar, 24 h, 200 ppm on foliage, one-day protectant test, read-out: ERYSGT percent control of disease
Leptosphaeria nodorum = assay: Glume Blotch of Wheat (LEPTNO), whole-plant fungicide test; conditions: Parastagonospora nodorum, foliar, 24 h, 200 ppm on foliage, one-day protectant test, read-out: LEPTNO percent control of disease
Phytophthora infestans = assay: whole plant or invertebrate; conditions: Phytophthora infestans, in Solanum lycopersicum, 24 h; for pest or weed control at 200 ppm: foliar, read-out: PHYTIN percent control of disease, 200 ppm on foliage, tomato, one-day protectant test
[2] = test system: Puccinia recondita tritici; assay: Leaf Rust of Wheat (PUCCRT), whole-plant fungicide test; conditions: Puccinia recondita, foliar, 24 h, 200 ppm on foliage, one-day protectant test, read-out: PUCCRT percent control of disease
Magnaporthe grisea = assay: whole plant or invertebrate; conditions: Pyricularia oryzae, in Oryza sativa, foliar, 24 h, read-out: PYRIOR percent control of disease, 200 ppm on foliage, rice, one-day protectant test
Septoria tritici = assay: Speckled Leaf Blotch of Wheat (SEPTTR), whole-plant fungicide test; conditions: Zymoseptoria tritici, foliar, 24 h, 200 ppm on foliage, one-day protectant test, read-out: SEPTTR percent control of disease

| SMILES | pest or weed control at 200 ppm (Cochliobolus sativus) [%] | pest or weed control at 200 ppm (Colletotricum lagenarium) [%] | pest or weed control at 200 ppm (Erysiphe cichoracaerum) [%] | pest or weed control at 200 ppm [1] [%] | pest or weed control at 200 ppm (Leptosphaeria nodorum) [%] | pest or weed control at 100 ppm (Phytophthora infestans; read-out: PHYTIN percent control of disease, 100 ppm (footnote a), tomato, one-day protectant test) [%] | pest or weed control at 200 ppm [2] [%] | pest or weed control at 200 ppm (Magnaporthe grisea) [%] | pest or weed control at 200 ppm (Septoria tritici) [%] | pest or weed control at 200 ppm (Phytophthora infestans) [%] |
| --- | --- | --- | --- | --- | --- | --- | --- | --- | --- | --- |
| CC(C)c1ccc(CCNc2ncnc3scc(Cl)c23)cc1 [Compound 7] | 50 to 79 | 0 to 49 | 80 to 100 | 80 to 100 | 50 to 79 | 80 to 100 | 80 to 100 | 80 to 100 | 50 to 79 | – |
| CC(Nc1ncnc2scc(Cl)c12)c1ccn(C)c1 (stereo not drawn) [Compound 12] | 0 to 49 | 0 to 49 | 0 to 49 | 0 to 49 | 50 to 79 | – | 50 to 79 | 80 to 100 | 0 to 49 | 80 to 100 |
| CC(Nc1ncnc2scc(Cl)c12)c1nc2ccccc2s1 (stereo not drawn) [Compound 41] | 50 to 79 | 0 to 49 | 80 to 100 | 80 to 100 | 80 to 100 | – | 80 to 100 | 80 to 100 | 80 to 100 | 80 to 100 |
| COc1cnc(C(C)Nc2ncnc3scc(Cl)c23)nc1 (stereo not drawn) [Compound 36] | 0 to 49 | 0 to 49 | 0 to 49 | 0 to 49 | 0 to 49 | – | 80 to 100 | 80 to 100 | 50 to 79 | 80 to 100 |
| CC(Nc1ncnc2scc(Cl)c12)c1ccn(C(C)C)c1 (stereo not drawn) [Compound 16] | 50 to 79 | 0 to 49 | 0 to 49 | 0 to 49 | 0 to 49 | – | 0 to 49 | 50 to 79 | 0 to 49 | 0 to 49 |
| CC(Nc1ncnc2scc(Cl)c12)c1ccc[nH]1 (stereo not drawn) [Compound 11] | 0 to 49 | 0 to 49 | 0 to 49 | 0 to 49 | 50 to 79 | – | 50 to 79 | 50 to 79 | 50 to 79 | 0 to 49 |
| CC(Nc1ncnc2scc(Cl)c12)c1ccc(OCc2ccccc2)cn1 (stereo not drawn) [Compound 35] | 0 to 49 | 80 to 100 | 50 to 79 | 0 to 49 | 50 to 79 | – | 80 to 100 | 80 to 100 | 50 to 79 | 50 to 79 |
| CC(Nc1ncnc2scc(Cl)c12)c1ccc(C(F)(F)F)cn1 (stereo not drawn) [Compound 19] | 80 to 100 | 0 to 49 | 0 to 49 | 50 to 79 | 50 to 79 | – | 50 to 79 | 80 to 100 | 50 to 79 | 0 to 49 |
